Experiments:
[1] = test system: HL60 (human promyelocytic leukemia) cells; test: Gene expression profiling of tretinoin-treated HL60 cells, LMA RT-PCR amplicons detected on encoded hydrogel particles; format: cell-based; settings: for Raw Signal (AU) / Differential Expression: log(tret/DMSO): HL60 cells; for Raw Signal (AU): 1 μmol/l tretinoin, five days; for Normalized Signal: normalized to LUA95, tretinoin-treated HL60 cells; for Differential Expression: log(tret/DMSO): tretinoin vs DMSO
Procedure: (§1) Gene expression profiling experiment were conducted to detect and quantify the effects of drug treatment on expression of certain target mRNAs in a complex sample using hydrogel particles. Applicants repeated previously reported multiplex ligation-mediated PCR experiments that used Luminex FlexMAP (Luminex, Austin, Tex., USA) optically addressed barcoded microspheres in side by side experiments with hydrogel particles using an endogenous reference gene for quantification. The methods used are described in Peck et al. A Method for High-Throughput Gene Expression Signature Analysis, Genome Biology, 7:R61, 2006; details are set forth in Example 3. Although the Peck et al experiments were done with traditional RT-PCR and hybridization in multiple steps, the experiments are amendable to embodiments of the present methods for one chamber quantitative multiplexed end point PCR.
(§2) HL60 (human promyelocytic leukemia) cells were cultured in the presence of either […] in DMSO or DMSO alone, and quantification was based on comparison of target mRNA expression to the reference gene […]. […] Upstream and downstream probe pairs designed for each of the targets by Peck were used to generate the amplicons. Unique upstream biotin-conjugated primers for each target included a 24 nucleotide bar code sequence for each of the five mRNAs. Applicants designed probes for immobilization on encoded hydrogel particles that were complementary to the 24 nucleotide bar code on each unique upstream primer to enable capture of the amplicons on encoded hydrogel particles. Methods for making the particles are described in Example 3. Each encoded hydrogel particle was made with multiple probe regions directed to each of the five mRNAs (four targets and one reference gene) and a control, respectively.
(§3) Total RNA was isolated from the HL60 cells, reverse-transcribed and amplified using a simple RT-PCR method. In order to compare the sensitivity of the encoded hydrogel particles to the Luminex magnetic particles, the exact protocol described by Peck et al. was followed. There were 39 cycles in which: there was an initial denaturation at 92° C. for 9 minutes, followed by denaturation at 92° C. for 30 s, followed by annealing at 60° C. for 30 s, extension at 72° C. for 30 s for 39 cycles, and a final extension at 72° C. for 5 minutes. After a final denaturation at 95° C. for two minutes hybridization was carried out at 45° C. for 60 minutes. Note that in the preferred embodiments of the present invention the hybridization temperature is from 2-15° C. […] than the primer annealing temperature to optimize specificity. By contrast, the hybridization temperature (45° C.) used by Peck et al. was 15° C. lower than the annealing temperature.
(§4) After hybridization, the respective Luminex and hydrogel particles were rinsed, incubated with streptavidin-phycoerythrin to fluorescently label the primers, rinsed again, and imaged for fluorescence. The fluorescent signals obtained were quantified and normalized against the internal reference (LUA95) after subtracting the background signal from the control region on each particle (CTL).
(§5) Similar to the protocol described in Peck et al., Genome Biology, 7:R61, 2006, HL60 (human promyelocytic leukemia) cells were cultured in RPMI supplemented with 10% fetal bovine serum and antibiotics. Cells were treated with 1 μmol/l tretinoin (all-trans retinoic acid; Sigma-Aldrich, St Louis, Mo., USA) in dimethyl sulfoxide (DMSO; final concentration 0.1%) or DMSO alone for five days. Total RNA was isolated from bulk cultures with TRIzol Reagent (Invitrogen, Carlsbad, Calif., USA), in accordance with the manufacturer's directions. For the classification exercise, microtiter plate cultures were treated with 200 nmol/l tretinoin or DMSO for two days to mimic the submaximal signatures likely to be encountered in a small molecule screen, and were and prepared for mRNA capture by the addition of Lysis Buffer (RNAture, Irvine, Calif., USA). […]

[2] = test system: HL60 (human promyelocytic leukemia) cells; test: Gene expression profiling of tretinoin-treated HL60 cells, LMA RT-PCR amplicons detected on Luminex microspheres; format: cell-based; settings: for Raw Signal (AU) / Differential Expression: log(tret/DMSO): HL60 cells; for Raw Signal (AU): 1 μmol/l tretinoin, five days; for Normalized Signal: normalized to LUA95, tretinoin-treated HL60 cells; for Differential Expression: log(tret/DMSO): tretinoin vs DMSO
Procedure: as §1, §2, §3, §4, §5

[3] = LUA95 (GAPDH3 internal reference, NM_002046)

Question: Which results are given for CC1=C(/C=C/C(C)=C/C=C/C(C)=C/C(=O)O)C(C)(C)CCC1 [tretinoin]?
Answer: Raw Signal (AU) ([1]; LUA7 mRNA (NM_000962)): 7.44 AU; Normalized Signal ([1]; LUA7 mRNA (NM_000962)): 0.084; Differential Expression: log(tret/DMSO) ([1]; LUA7 mRNA (NM_000962)): 0.486; Raw Signal (AU) ([1]; LUA27 mRNA (NM_006432)): 14.64 AU; Normalized Signal ([1]; LUA27 mRNA (NM_006432)): 0.166; Differential Expression: log(tret/DMSO) ([1]; LUA27 mRNA (NM_006432)): 0.818; Raw Signal (AU) ([1]; LUA59 mRNA (NM_004095)): 1.14 AU; Normalized Signal ([1]; LUA59 mRNA (NM_004095)): 0.013; Differential Expression: log(tret/DMSO) ([1]; LUA59 mRNA (NM_004095)): −0.841; Raw Signal (AU) ([1]; LUA68 mRNA (NM_003132)): 2.99 AU; Normalized Signal ([1]; LUA68 mRNA (NM_003132)): 0.034; Differential Expression: log(tret/DMSO) ([1]; LUA68 mRNA (NM_003132)): −0.822; Raw Signal (AU) [1, 3]: 88.45 AU; Raw Signal (AU) ([2]; LUA7 mRNA (NM_000962)): 389.3 AU; Normalized Signal ([2]; LUA7 mRNA (NM_000962)): 0.222; Differential Expression: log(tret/DMSO) ([2]; LUA7 mRNA (NM_000962)): 0.785; Raw Signal (AU) ([2]; LUA27 mRNA (NM_006432)): 775.5 AU; Normalized Signal ([2]; LUA27 mRNA (NM_006432)): 0.442; Differential Expression: log(tret/DMSO) ([2]; LUA27 mRNA (NM_006432)): 0.871; Raw Signal (AU) ([2]; LUA59 mRNA (NM_004095)): 100.3 AU; Normalized Signal ([2]; LUA59 mRNA (NM_004095)): 0.057; Differential Expression: log(tret/DMSO) ([2]; LUA59 mRNA (NM_004095)): −0.576; Raw Signal (AU) ([2]; LUA68 mRNA (NM_003132)): 178.0 AU; Normalized Signal ([2]; LUA68 mRNA (NM_003132)): 0.101; Differential Expression: log(tret/DMSO) ([2]; LUA68 mRNA (NM_003132)): −0.619; Raw Signal (AU) [2, 3]: 1754.4 AU
